The values below are quoted from earlier work in PMC10070485, “In silico study of HASDI (high-affinity selective DNA intercalator) as a new agent capable of highly selective recognition of the DNA sequence” (Scientific Reports, 2023).

For data set [1], the system named is DNA sequences. Further details: method as in PMID 31820194. Particulars: MD, MM-PB(GB)SA, DFT.
In data set [2] the test system is DNA sequences. Further details: method as in PMID 24446378. Conditions: docking, MD, MM-PBSA, MESP.
In another data set the test system is A-T base pairs. Conditions: fluorescence titrations.
For data set [3], the system named is DNA sequences of the d(ATGCAT)2 type. Further details: method as in PMID 34299405. Particulars: diamine linker in the major groove.

Regarding `COc1cccc2c1C(=O)c1c(O)c3c(c(O)c1C2=O)C[C@@](O)(C(C)=O)C[C@@H]3O[C@H]1C[C@H](N)[C@H](O)[C@H](C)O1` [daunomycin], the DNA sequence specificity entry in the data set on DNA sequences [1] is “highest affinity for TC/GA rich sequences”.
Turning to `Nc1cccc2oc(-c3ccccc3)cc(=O)c12` [AMF, 5-aminoflavone], the DNA groove specificity result with DNA sequences [2] is “stable in the minor groove of AT-rich DNA and in the major groove of GC-rich DNA”.
For the molecule neomycin-Hoechst 33258-pyrene conjugate, in the data set with A-T base pairs, the “number of A-T base pairs selectively recognized” value is “up to 9”.
Take `Cc1cccc2nc3cccc(C(=O)NCCNCCNCCNC(=O)c4cccc5nc6cccc(C)c6nc45)c3nc12` [MLN944]: the “DNA sequence type of greatest affinity” value in data set [3] is “d(ATGCAT)2”.
As for `Cc1cc(-c2nc3cc(F)ccc3s2)ccc1N` [5F], the DNA groove specificity entry in the data set with DNA sequences [2] was “affinity only to the minor groove”.
